Measured values taken from PubChem BioAssay (NCI).
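All cell lines were grown in 96-well plates and treated with compound for 48 hours. At the GI50, growth is halved. TGI denotes the concentration required for complete inhibition of growth.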

Tests used:
Assay in all cases: growth of human tumour cells (NCI), 48 h
[1] = test system: MDA-MB-435
[2] = test system: SNB-19 CNS
[3] = test system: CAKI-1 renal
[4] = test system: UACC-62 melanoma
[5] = test system: OVCAR-5 ovarian
[6] = test system: UACC-257 melanoma
[7] = test system: NCI-H460 lung
[8] = test system: SNB-75 CNS
[9] = test system: TK-10 renal
[10] = test system: SK-MEL-2 melanoma
[11] = test system: U251 CNS
[12] = test system: A549 NSCLC
[13] = test system: MDA-MB-231 breast
[14] = test system: K-562 leukemia
[15] = test system: SK-MEL-28 melanoma
[16] = test system: 786-0 renal
[17] = test system: EKVX NSCLC
[18] = test system: SK-MEL-5 melanoma
[19] = test system: ACHN renal
[20] = test system: RPMI-8226 leukemia
[21] = test system: HL-60(TB) leukemia
[22] = test system: SF-268 CNS
[23] = test system: OVCAR-8 ovarian
[24] = test system: CCRF-CEM leukemia
[25] = test system: HT29 colon
[26] = test system: MALME-3M melanoma
[27] = test system: NCI-H522 lung
[28] = test system: SN12C renal
[29] = test system: KM12 colon
[30] = test system: HCC-2998 colon
[31] = test system: IGROV1 ovarian
[32] = test system: HCT-116 colon
[33] = test system: SW-620 colon
[34] = test system: DU-145 prostate
[35] = test system: SR leukemia
[36] = test system: SK-OV-3 ovarian
[37] = test system: A498 renal
[38] = test system: NCI-H226 lung
[39] = test system: UO-31 renal
[40] = test system: M14 melanoma
[41] = test system: HOP-62 NSCLC
[42] = test system: MOLT-4 leukemia
[43] = test system: BT-549 breast
[44] = test system: MCF7 breast
[45] = test system: HOP-92 NSCLC
[46] = test system: SF-295 CNS
[47] = test system: PC-3 prostate
[48] = test system: OVCAR-3 ovarian
[49] = test system: HCT-15 colon
[50] = test system: SF-539 CNS
[51] = test system: LOX IMVI melanoma
[52] = test system: RXF 393 renal
[53] = test system: OVCAR-4 ovarian
[54] = test system: COLO 205 colon
[55] = test system: HS 578T breast
[56] = test system: T-47D breast
[57] = test system: NCI-H23 lung
[58] = test system: NCI/ADR-RES ovarian

CCn1cc(C2NC(=O)c3ccccc3N2)c2cccc(C)c21 (stereo not given)
GI50 [1]: 142 nM
TGI [1]: 357 nM
GI50 [2]: 456 nM
TGI [2]: > 100000 nM
GI50 [3]: 289 nM
TGI [3]: 20400 nM
GI50 [4]: 311 nM
TGI [4]: > 100000 nM
GI50 [5]: 915 nM
TGI [5]: > 91600 nM
GI50 [6]: 60000 nM
TGI [6]: > 100000 nM
GI50 [7]: 346 nM
TGI [7]: 1460 nM
GI50 [8]: 184 nM
TGI [8]: 829 nM
GI50 [9]: 3000 nM
TGI [9]: > 40900 nM
GI50 [10]: 631 nM
TGI [10]: > 100000 nM
GI50 [11]: 456 nM
TGI [11]: 13900 nM
GI50 [12]: 653 nM
TGI [12]: 14700 nM
GI50 [13]: 991 nM
TGI [13]: 12000 nM
GI50 [14]: 224 nM
TGI [14]: > 100000 nM
GI50 [15]: 2040 nM
TGI [15]: > 100000 nM
GI50 [16]: 539 nM
TGI [16]: 22300 nM
GI50 [17]: 621 nM
TGI [17]: > 100000 nM
GI50 [18]: 338 nM
TGI [18]: 5870 nM
GI50 [19]: 685 nM
TGI [19]: 23100 nM
GI50 [20]: 381 nM
TGI [20]: > 100000 nM
GI50 [21]: 310 nM
TGI [21]: 1060 nM
GI50 [22]: 1360 nM
TGI [22]: > 68000 nM
GI50 [23]: 617 nM
TGI [23]: 22600 nM
GI50 [24]: 324 nM
TGI [24]: 96900 nM
GI50 [25]: 331 nM
TGI [25]: 4290 nM
GI50 [26]: 449 nM
TGI [26]: > 100000 nM
GI50 [27]: 265 nM
TGI [27]: 17600 nM
GI50 [28]: 579 nM
TGI [28]: 17000 nM
GI50 [29]: 389 nM
TGI [29]: 22200 nM
GI50 [30]: 1080 nM
TGI [30]: 8220 nM
GI50 [31]: 473 nM
TGI [31]: > 100000 nM
GI50 [32]: 409 nM
TGI [32]: 11500 nM
GI50 [33]: 337 nM
TGI [33]: > 100000 nM
GI50 [34]: 430 nM
TGI [34]: 27900 nM
GI50 [35]: 261 nM
TGI [35]: > 100000 nM
GI50 [36]: 522 nM
TGI [36]: > 86100 nM
GI50 [37]: 172 nM
TGI [37]: 947 nM
GI50 [38]: 572 nM
TGI [38]: 13200 nM
GI50 [39]: 631 nM
TGI [39]: 16400 nM
GI50 [40]: 298 nM
TGI [40]: > 100000 nM
GI50 [41]: 517 nM
TGI [41]: 34200 nM
GI50 [42]: 531 nM
TGI [42]: > 100000 nM
GI50 [43]: 901 nM
TGI [43]: 17600 nM
GI50 [44]: 298 nM
TGI [44]: > 100000 nM
GI50 [45]: 4790 nM
TGI [45]: > 78700 nM
GI50 [46]: 293 nM
GI50 [47]: 443 nM
TGI [47]: > 100000 nM
GI50 [48]: 275 nM
TGI [48]: 1020 nM
GI50 [49]: 360 nM
TGI [49]: 24500 nM
GI50 [50]: 275 nM
TGI [50]: 1340 nM
GI50 [51]: 571 nM
TGI [51]: 13700 nM
GI50 [52]: 199 nM
TGI [52]: 658 nM
GI50 [53]: 1490 nM
TGI [53]: 13100 nM
GI50 [54]: 485 nM
TGI [54]: 9880 nM
GI50 [55]: 255 nM
TGI [55]: 1950 nM
GI50 [56]: 556 nM
TGI [56]: > 100000 nM
GI50 [57]: 844 nM
TGI [57]: > 100000 nM
GI50 [58]: 319 nM
TGI [58]: 4570 nM
